Laboratory results: patent publication US12157746B2, “Tetrahydro-1H-pyrazino[2,1-a]isoindolylquinoline compounds for the treatment of autoimmune disease” (F. HOFFMANN-LA ROCHE AG, priority 2018, dated 2024)

These compounds were tested against T1, human TLR9 (Homo sapiens, UniProt Q9NR96) (assay: HEK293-Blue-hTLR-9 cells assay). Settings: HEK293-Blue-hTLR9 cells, ODN2006 stimulation, 20 hrs, SEAP reporter; read-out: HEK/hTLR9 IC50.
T1 sequence (Q9NR96 26-1032): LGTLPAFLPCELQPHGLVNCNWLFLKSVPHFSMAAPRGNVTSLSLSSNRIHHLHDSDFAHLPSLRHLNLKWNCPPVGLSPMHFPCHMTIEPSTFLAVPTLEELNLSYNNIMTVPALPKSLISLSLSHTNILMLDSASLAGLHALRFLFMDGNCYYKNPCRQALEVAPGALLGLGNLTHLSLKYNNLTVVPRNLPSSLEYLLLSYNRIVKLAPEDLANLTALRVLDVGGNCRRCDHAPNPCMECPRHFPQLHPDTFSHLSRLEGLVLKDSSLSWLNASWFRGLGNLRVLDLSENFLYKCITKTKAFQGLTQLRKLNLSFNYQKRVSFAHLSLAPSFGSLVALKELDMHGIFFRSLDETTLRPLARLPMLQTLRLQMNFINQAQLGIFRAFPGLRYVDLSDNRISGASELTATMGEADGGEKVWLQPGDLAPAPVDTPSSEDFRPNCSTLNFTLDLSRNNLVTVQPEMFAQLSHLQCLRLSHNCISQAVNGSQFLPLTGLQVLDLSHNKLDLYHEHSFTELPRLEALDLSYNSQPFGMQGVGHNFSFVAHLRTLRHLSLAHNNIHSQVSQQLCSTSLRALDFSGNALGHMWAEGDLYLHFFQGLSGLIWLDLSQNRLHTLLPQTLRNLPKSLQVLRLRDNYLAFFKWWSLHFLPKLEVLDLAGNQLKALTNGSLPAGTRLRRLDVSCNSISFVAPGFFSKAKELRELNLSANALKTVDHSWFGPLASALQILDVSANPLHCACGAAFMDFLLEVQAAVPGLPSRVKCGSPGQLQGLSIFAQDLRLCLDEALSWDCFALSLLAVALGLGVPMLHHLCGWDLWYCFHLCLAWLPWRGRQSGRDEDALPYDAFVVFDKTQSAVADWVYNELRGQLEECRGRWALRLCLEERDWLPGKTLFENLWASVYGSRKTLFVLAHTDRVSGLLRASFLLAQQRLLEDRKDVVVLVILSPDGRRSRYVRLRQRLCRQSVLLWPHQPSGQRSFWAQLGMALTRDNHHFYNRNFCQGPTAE
Assay type: cell-based
Source text: HEK293-Blue-hTLR-9 Cells Assay:
A stable HEK293-Blue-hTLR-9 cell line was purchased from InvivoGen (Cat. #: hkb-htlr9, San Diego. California USA). These cells were originally designed for studying the stimulation of human TLR9 by monitoring the activation of NF-κB. A SEAP (secreted embryonic alkaline phosphatase) reporter gene was placed under the control of the IFN-β minimal promoter fused to five NF-κB and AP-1-binding sites. The SEAP was induced by activating NF-κB and AP-1 via stimulating HEK-Blue hTLR9 cells with TLR9 ligands. Therefore the reporter expression was declined by TLR9 antagonist under the stimulation of a ligand, such as ODN2006 (Cat. #: tlrl-2006-1, Invivogen, San Diego, California USA), for incubation of 20 hrs. The cell culture supernatant SEAP reporter activity was determined using QUANTI-Blue™ kit (Cat. #: rep-qb1, Invivogen, San Diego, California, USA) at a wavelength of 640 nm, a detection medium that turns purple or blue in the presence of alkaline phosphatase.
HEK293-Blue-hTLR9 cells were incubated at a density of 250.000-450,000 cells/mL in a volume of 170 μL in a 96-well plate in Dulbecco's Modified Eagle's medium (DMEM) containing 4.5 g/L glucose, 50 U/mL penicillin, […], […], 2 mM L-glutamine, 10% (v/v) heat-inactivated fetal bovine serum with addition of 20 μL test compound 1n a serial dilution in the presence of final DMSO at 1% and 10 μL of 20 uM ODN2006 in above DMEM, perform incubation under 37° C. in a CO2 incubator for 20 hrs. Then 20 μL of the supernatant from each well was incubated with 180 μL Quanti-blue substrate solution at 37° C. for 2 h and the absorbance was read at 620˜655 nm using a spectrophotometer. The signaling pathway that TLR9 activation leads to downstream NF-κB activation has been widely accepted, and therefore similar reporter assay was modified for evaluating TLR9 antagonist.

Compound	IC50 [nM]
C[C@@H]1CN(c2ccc(C#N)c3ncccc23)C[C@@H]2c3ccc(N4C[C@H](N)[C@@H](O)C4)cc3CN12 [Example 40A, 5-[(4R,10bS)-8-[(3S,4S)-3-amino-4-hydroxy-pyrrolidin-1-yl]-4-methyl-3,4,6,10b-tetrahydro-1H-pyrazino[2,1-a]isoindol-2-yl]quinoline-8-carbonitrile]	59.5
C[C@@H]1CN(c2ccc(C#N)c3ncccc23)C[C@@H]2c3ccc(N4CCNC[C@@H]4CO)cc3CN12 [Example 10, 5-[(4R,10bS)-8-[(2R)-2-(hydroxymethyl)piperazin-1-yl]-4-methyl-3,4,6,10b-tetrahydro-1H-pyrazino[2,1-a]isoindol-2-yl]quinoline-8-carbonitrile]	92.5
CO[C@@H]1CN(c2ccc3c(c2)CN2[C@H](C)CN(c4ccc(C#N)n5nccc45)C[C@H]32)CC[C@@H]1N [Example 105, 4-[(4R,10bS)-8-[(3R,4S)-4-amino-3-methoxy-1-piperidyl]-4-methyl-3,4,6,10b-tetrahydro-1H-pyrazino[2,1-a]isoindol-2-yl]pyrazolo[1,5-a]pyridine-7-carbonitrile]	163
[2H]c1ccc2c(N3C[C@@H](C)N4Cc5cc(N[C@H]6CNC[C@H]6F)ccc5[C@H]4C3)ccc(C#N)c2n1 [Example 91, 5-[(4R,10bS)-8-[[(3S,4R)-4-fluoropyrrolidin-3-yl]amino]-4-methyl-3,4,6,10b-tetrahydro-1H-pyrazino[2,1-a]isoindol-2-yl]-2-deuterio-quinoline-8-carbonitrile]	70.5
CO[C@@H]1CN(c2ccc3c(c2)CN2[C@H](C)CN(c4ccc(C#N)n5ncc(F)c45)C[C@H]32)C[C@H]1N [Example 113, 4-[(4R,10bS)-8-[(3R,4R)-3-amino-4-methoxy-pyrrolidin-1-yl]-4-methyl-3,4,6,10b-tetrahydro-1H-pyrazino[2,1-a]isoindol-2-yl]-3-fluoro-pyrazolo[1,5-a]pyridine-7-carbonitrile]	135
CN[C@@H]1CN(c2ccc3c(c2)CN2[C@H](C)CN(c4ccc(C#N)c5ncccc45)C[C@H]32)C[C@H]1O [Example 43, 5-[(4R,10bS)-4-methyl-8-[(3R,4R)-3-hydroxy-4-(methylamino)pyrrolidin-1-yl]-3,4,6,10b-tetrahydro-1H-pyrazino[2,1-a]isoindol-2-yl]quinoline-8-carbonitrile]	55.5
C[C@@H]1CN(c2ccc(C#N)c3ncccc23)C[C@@H]2c3ccc(N4CCN[C@H](CO)C4)cc3CN12 [Example 12, 5-[(4R,10bS)-8-[(3S)-3-(hydroxymethyl)piperazin-1-yl]-4-methyl-3,4,6,10b-tetrahydro-1H-pyrazino[2,1-a]isoindol-2-yl]quinoline-8-carbonitrile]	71.2
C[C@@H]1CN(c2ccc(C#N)c3ncccc23)C[C@@H]2c3ccc(N4CC5(CNC5)C4)cc3CN12 [Example 36, 5-[(4R,10bS)-8-(2,6-diazaspiro[3.3]heptan-2-yl)-4-methyl-3,4,6,10b-tetrahydro-1H-pyrazino[2,1-a]isoindol-2-yl]quinoline-8-carbonitrile]	100
C[C@@H]1CN(c2ccc(C#N)n3nccc23)C[C@@H]2c3ccc(N4CC[C@@H](N)C4)cc3CN12 [Example 96, 4-[(4R,10bS)-8-[(3R)-3-aminopyrrolidin-1-yl]-4-methyl-3,4,6,10b-tetrahydro-1H-pyrazino[2,1-a]isoindol-2-yl]pyrazolo[1,5-a]pyridine-7-carbonitrile]	193
C[C@@H]1CN(c2ccc(C#N)c3ncccc23)C[C@@H]2c3ccc(N4C[C@@H](N)[C@](C)(O)C4)cc3CN12 [Example 45, 5-[(4R,10bS)-4-methyl-8-[trans-(3R,4R)-4-amino-3-hydroxy-3-methyl-pyrrolidin-1-yl]-3,4,6,10b-tetrahydro-1H-pyrazino[2,1-a]isoindol-2-yl]quinoline-8-carbonitrile]	78.5
C[C@@H]1CN(c2ccc(C#N)c3ncccc23)C[C@@H]2c3ccc(N4CCC(C)(N)CC4)cc3CN12 [Example 51, 5-[(4R,10bS)-8-(4-amino-4-methyl-1-piperidyl)-4-methyl-3,4,6,10b-tetrahydro-1H-pyrazino[2,1-a]isoindol-2-yl]quinoline-8-carbonitrile]	139
C[C@@H]1CN(c2ccc(C#N)c3ncccc23)C[C@@H]2c3ccc(N4CCOCC(N)C4)cc3CN12 (stereo partly drawn) [Example 54, 5-[(4R,10bS)-8-(6-amino-1,4-oxazepan-4-yl)-4-methyl-3,4,6,10b-tetrahydro-1H-pyrazino[2,1-a]isoindol-2-yl]quinoline-8-carbonitrile]	63.6
C[C@@H]1CN(c2ccc(C#N)c3ncccc23)C[C@@H]2c3ccc(N4CC(N)C4)cc3CN12 [Example 22, 5-[(4R,10bS)-8-(3-aminoazetidin-1-yl)-4-methyl-3,4,6,10b-tetrahydro-1H-pyrazino[2,1-a]isoindol-2-yl]quinoline-8-carbonitrile]	104
C[C@@H]1CN(c2ccc(C#N)c3ncsc23)C[C@@H]2c3ccc(N4CCNCC4)cc3CN12 [Example 6, 7-[(4R,10bS)-4-methyl-8-piperazin-1-yl-3,4,6,10b-tetrahydro-1H-pyrazino[2,1-a]isoindol-2-yl]-1,3-benzothiazole-4-carbonitrile]	156
C[C@@H]1CN(c2ccc(C#N)n3nccc23)C[C@@H]2c3ccc(N[C@H]4CNC[C@H]4F)cc3CN12 [Example 98, 4-[(4R,10bS)-8-[[(3S,4R)-4-fluoropyrrolidin-3-yl]amino]-4-methyl-3,4,6,10b-tetrahydro-1H-pyrazino[2,1-a]isoindol-2-yl]pyrazolo[1,5-a]pyridine-7-carbonitrile]	197
C[C@@H]1CN(c2ccc(C#N)c3ncccc23)C[C@@H]2c3ccc(N4C[C@@H](N)[C@](C)(O)C4)cc3CN12 [Example 45A, 5-[(4R,10bS)-8-[(3R,4R)-4-amino-3-hydroxy-3-methyl-pyrrolidin-1-yl]-4-methyl-3,4,6,10b-tetrahydro-1H-pyrazino[2,1-a]isoindol-2-yl]quinoline-8-carbonitrile]	78.3
C[C@@H]1CN(c2ccc(C#N)c3ncccc23)C[C@@H]2c3ccc(N4CCNC[C@H]4CO)cc3CN12 [Example 11, 5-[(4R,10S)-8-[(2S)-2-(hydroxymethyl)piperazin-1-yl]-4-methyl-3,4,6,10b-tetrahydro-1H-pyrazino[2,1-a]isoindol-2-yl]quinoline-8-carbonitrile]	92
C[C@@H]1CN(c2ccc(C#N)c3ncccc23)C[C@@H]2c3ccc(N4CC5(CCN5)C4)cc3CN12 [Example 37, 5-[(4R,10bS)-8-(1,6-diazaspiro[3.3]heptan-6-yl)-4-methyl-3,4,6,10b-tetrahydro-1H-pyrazino[2,1-a]isoindol-2-yl]quinoline-8-carbonitrile]	103
C[C@@H]1CN(c2ccc(C#N)c3ncccc23)C[C@@H]2c3ccc(N4C[C@@H](N)[C@H](O)C4)cc3CN12 (single isomer, unassigned) [Example 40B]	70.8
C[C@@H]1CN(c2ccc(C#N)c3ncccc23)C[C@@H]2c3ccc(N4C[C@@H](N)[C@@H](F)C4)cc3CN12 [Example 47, 5-[(4R,10bS)-8-[(3R,4S)-3-amino-4-fluoro-pyrrolidin-1-yl]-4-methyl-3,4,6,10b-tetrahydro-1H-pyrazino[2,1-a]isoindol-2-yl]quinoline-8-carbonitrile]	146
